Measurements taken from US5190961A, “Thiourea derivatives and antimicrobial agent and antulcer agent containing the same” (Terumo Kabushiki Kaisha, priority 1990, dated 1993).
Values after ≈ are worked out from the molar mass of the structure shown.

Legend:
Helicobacter pylori = assay: Antimicrobial activity against Helicobacter pylori (MIC); format: cell-based, Helicobacter pylori strain NCTC 11916; details: NCTC11916, strain NCTC 11916, twofold dilution, 37° C., 3-5 days, O2 about 5%
Method: (3) Antimicrobial activity against Helicobacter pylori
Antimicrobial activity of the thiourea derivatives according to the invention against Helicobacter pylori (or Campylobacter pylori) was evaluated by employing strain NCTC 11916 as a Helicobacter test organism and determining MIC (minimum inhibitory concentration) for the strain with the thiourea derivative.
The Helicobacter pylori was pre-incubated in a plate medium for 3-5 days. The medium was prepared by dissolving 38 g of a Mueller-Hinton medium (manufactured by Difco) in an appropriate amount of distilled water, sterilizing the solution in an autoclave, adding to the solution 50 ml of a horse hemolysis solution (manufactured by Nippon Seibutu Zairyou Center: Horse defibrinized blood, hemolyzed by a lyophilization treatment) and 2 ml of Skirrow, a Campylobacter selective supplement (manufactured by OXOID) containing vancomycin (5 mg), trimethoprim (2.5 mg) and polymyxin B (1250 IU) per vial (2 ml), and further an appropriate amount of distilled water to a volume of 1L in total and expanding and solidifying the solution on a dish. These antibiotics were contained for inhibition of the growth of microorganism other than Helicobacter pylori. The Helicobacter pylori pre-incubated under slightly aerobic conditions (an O2 concentration of about 5%) at 37° C. for 3-5 days was suspended in a physiological saline solution in a concentration of approximately 10^8 organisms/ml. Approximately 10-20 μl of the suspension was inoculated on a medium for MIC measurement in cross streaks. […] The DMSO solution was formed by the twofold dilution method. As in the pre-incubation, the Helicobacter pylori was cultured under slightly aerobic conditions at 37° C. for 3-5 days. After completion of the culture, growth of the microoranisms on the streaks was visually determined. The minimum concentration of the thiourea derivative in which no growth was observed was taken as MIC.
It was confirmed that the thiourea derivatives of the invention not shown in the table also have a similar antimicrobial activity.

ethanol peptic ulcer = assay: Inhibitory action against ethanol peptic ulcer; format: in vivo; details: Rattus norvegicus; SD male rats, 32 mg/kg oral, 1 hour before ethanol 0.5 ml/100 g; read-out: Inhibitory action against ethanol peptic ulcer, Percent inhibition of p.u. formation
Method: (2) Inhibitory action against ethanol peptic ulcer
SD male rats (weighing 200-300 g) were fasted for 24 hours before oral administration of a thiourea derivative of the invention at a dose of 32 mg/kg bodyweight. One hour later, ethanol was orally given in a volume of 0.5 ml/100 g bodyweight. One hour after treating with ethanol, the rat was sacrificed with ether, and the stomach was excised and treated with formalin. Area (mm^2) of the lesions developed in the glandular stomach area was then measured. Results were expressed in sum of the lesions per animal which was referred to as peptic ulcer index.
(§1) It was confirmed that the thiourea derivatives of the invention not shown in the table also have a similar antiulcer activity.
Percent inhibition of the peptic ulcer formation (%) as shown in the table was calculated according to the same equation as mentioned above.

[1] = system: peptic ulcer induced by water immersion restraint stress; assay: Inhibitory action against the peptic ulcer induced by water immersion restraint stress; format: in vivo; details: Rattus norvegicus; SD male rats, 32 mg/kg oral, water immersion restraint stress 23° C., 7 hours; read-out: Inhibitory action against stress peptic ulcer, Percent inhibition of p.u. formation
Method: (1) Inhibitory action against the peptic ulcer induced by water immersion restraint stress
SD male rats (weighing 200-300 g) were fasted for 24 hours before oral administration of a thiourea derivative of the invention at a dose of 32 mg/kg bodyweight. One hour later, the animal was put in a stress cage and loaded with water immersion restraint stress in a water bath at 23° C. Seven hours after loading with the stress, the rate was sacrificed with ether, and the stomach was excised and treated with formalin. Area (mm^2 ) of the lesions developed in the glandular stomach area was then measured. Results were expressed in sum of the lesions per animal which was referred to as peptic ulcer index.
as §1
Percent inhibition of the peptic ulcer formation (%) as shown in the table was calculated according to the following equation: [formula]

SMILES | MIC (Helicobacter pylori) [mg/L] | inhibition in vivo at 32 mg/kg (ethanol peptic ulcer) [%] | inhibition in vivo at 32 mg/kg [1] [%]
O=C(CCCNC(=S)Nc1ccccc1)NCCCOc1cccc(CN2CCCCC2)c1 [Example 3, 1-[3-[N-(3-[3-(piperidinomethyl)phenoxy]propyl]carbamoyl]propyl]-3-phenylthiourea] | 12.5 (≈ 26.7 µM) | 88.7 | 80.5
O=C(CCCCCNC(=S)Nc1ccccc1)NCCCOc1cccc(CN2CCCCC2)c1 [Example 28, 1-[5-[N-[3-[3-(piperidinomethyl)phenoxy]propyl]carbamoyl]pentyl]-3-phenylthiourea] | 12.5 (≈ 25.2 µM) | 75.5 | 73.2
O=C(CCCNC(=S)Nc1ccccc1Oc1ccccc1)NCCCOc1cccc(CN2CCCCC2)c1 [Example 17, 1-[3-[N-[3-[3-(piperidinomethyl)phenoxy]propyl]carbamoyl]propyl]-3-(O-phenoxyphenyl)thiourea] | 12.5 (≈ 22.3 µM) | 73.3 | 62.2
O=C(CCCNC(=S)Nc1cccc2ccccc12)NCCCOc1cccc(CN2CCCCC2)c1 [Example 7, 1-[3-[N-[3-[3-(piperidinomethyl)phenoxy]-propyl]carbamoyl]propyl]-3-(1-naphthyl)thiourea] | 6.25 (≈ 12 µM) | 92 | 88.3
COc1ccc(NC(=S)NCCCC(=O)NCCCOc2cccc(CN3CCCCC3)c2)cn1 [Example 25, 1-[3-[N-[3-[3-(piperidinomethyl)phenoxy]propyl]carbamoyl]propyl]-3-[3-(6-methoxypyridyl)]thiourea] | 6.25 (≈ 12.5 µM) | 72.5 | 65.6
Cc1cc(C)c(NC(=S)NCCCC(=O)NCCCOc2cccc(CN3CCCCC3)c2)c(C)c1 [Example 12, 1-[3-[N-[3-[3-(piperidinomethyl)phenoxy]propyl]carbamoyl]propyl]-3-(2,4,6-trimethylphenyl)thiourea] | 6.25 (≈ 12.2 µM) | 80.2 | 77.1

More lines, in order of falling MIC (Helicobacter pylori), values ahead:

MIC (Helicobacter pylori) [mg/L] | SMILES | inhibition in vivo at 32 mg/kg (ethanol peptic ulcer) [%] | inhibition in vivo at 32 mg/kg [1] [%]
6.25 (≈ 13.9 µM) | CCCCNC(=S)NCCCC(=O)NCCCOc1cccc(CN2CCCCC2)c1 [Example 2] | 75.7 | 67.1
6.25 (≈ 12.6 µM) | O=C(CCCNC(=S)NCCc1ccccc1)NCCCOc1cccc(CN2CCCCC2)c1 [Example 6] | 84.4 | 76.9
6.25 (≈ 12.4 µM) | O=C(CCCNC(=S)Nc1ccc(Cl)cc1)NCCCOc1cccc(CN2CCCCC2)c1 [Example 4, 1-[3-[N-[3-[3-(piperidinomethyl)phenoxy]propyl]carbamoyl]propyl]-3-(p-chlorophenyl)thiourea] | 78.2 | 74.6
6.25 (≈ 13.2 µM) | O=C(CCCNC(=S)NCc1ccco1)NCCCOc1cccc(CN2CCCCC2)c1 [Example 26, 1-[3-[N-[3-[3-(piperidinomethyl)phenoxy]propyl]carbamoyl]propyl]-3-furfurylthiourea] | 90.3 | 74.4
6.25 (≈ 12.2 µM) | COc1cccc(C)c1NC(=S)NCCCC(=O)NCCCOc1cccc(CN2CCCCC2)c1 [Example 19, 1-[3-[N-[3-[3-(piperidinomethyl)phenoxy]propyl]carbamoyl]propyl]-3-(2-methoxy-6-methylphenyl)thiourea] | 94.6 | 90.1
6.25 (≈ 12.1 µM) | CSc1ccccc1NC(=S)NCCCC(=O)NCCCOc1cccc(CN2CCCCC2)c1 [Example 21, 1-[3-[N-[3-[3-(piperidinomethyl)phenoxy]propyl]carbamoyl]propyl]-3-(2-methylthiophenyl)thiourea] | 81.1 | 85.5
6.25 (≈ 11.2 µM) | COc1cc(NC(=S)NCCCC(=O)NCCCOc2cccc(CN3CCCCC3)c2)cc(OC)c1OC [Example 18, 1-[3-[N-[3-[3-(piperidinomethyl)phenoxy]propyl]carbamoyl]propyl]-3-(3,4,5-trimethoxyphenyl)thiourea] | 83.8 | 60.6
